# In ChEMBL document CHEMBL4049404, “Discovery of (R)-1-(3-(4-Amino-3-(3-chloro-4-(pyridin-2-ylmethoxy)phenyl)-1H-pyrazolo[3,4-d]pyrimidin-1-yl)piperidin-1-yl)prop-2-en-1-one (CHMFL-EGFR-202) as a Novel Irreversible EGFR Mutant Kinase Inhibitor with a Distinct Binding Mode” (J Med Chem, 2017):
# pEC50, pIC50: −log10 of the molar value.
# Tests used:
# [1] = biological target: T1, Epidermal growth factor receptor (Homo sapiens, UniProt P00533); experiment: Inhibition of wild type EGFR autophosphorylation at Y1068 in human NCI-H2122 cells at 0.01 to 3 uM after 4 hrs by Western blot analysis; assay type: cell-based
# [2] = Apparent plasma clearance in Sprague-Dawley rat after 24 hrs at 10 mg/kg, po; assay type: ADME, organism-based
# [3] = biological target: T1, Epidermal growth factor receptor; experiment: Inhibition of Tel-fused EGFR (unknown origin) expressed in mouse BAF3 cells assessed as growth inhibition after 72 hrs by CellTiter-Glo assay; assay type: cell-based
# [4] = biological target: T1, Epidermal growth factor receptor; experiment: Inhibition of wild-type EGFR in human A549 cells assessed as reduction in ERK phosphorylation at Thr202/Tyr204 site at 0.01 to 3 uM by Western blot analysis; assay type: cell-based; details: a549, 3 µM
# [5] = biological target: T1, Epidermal growth factor receptor; experiment: Inhibition of wild-type EGFR in human NCI-H2122 cells assessed as growth inhibition after 72 hrs by CellTiter-Glo assay; assay type: cell-based
# [6] = biological target: T1, Epidermal growth factor receptor; experiment: Inhibition of wild-type EGFR in human NCI-H2122 cells assessed as reduction in eIF4E phosphorylation at Ser209 site at 0.01 to 3 uM by Western blot analysis; assay type: cell-based
# [7] = biological target: Tyrosine-protein kinase BTK (Homo sapiens, UniProt Q06187); experiment: Binding affinity to full-length wild-type human BTK expressed in mammalian system assessed as control score at 1 uM by KINOMEScan assay
# [8] = biological target: T1, Epidermal growth factor receptor; experiment: Inhibition of wild-type EGFR in human A549 cells assessed as reduction in STAT3 phosphorylation at Y705 site at 0.01 to 3 uM by Western blot analysis; assay type: cell-based; details: a549, 3 µM
# [9] = biological target: T1, Epidermal growth factor receptor; experiment: Inhibition of wild-type EGFR in human A549 cells assessed as reduction in eIF4E phosphorylation at Ser209 site at 0.01 to 3 uM by Western blot analysis; assay type: cell-based; details: a549, 3 µM
# [10] = biological target: T1, Epidermal growth factor receptor; experiment: Inhibition of wild-type EGFR in human H1355 cells assessed as growth inhibition after 72 hrs by CellTiter-Glo assay; assay type: cell-based
# Rattus norvegicus [11] = experiment: AUC (0 to t) in Sprague-Dawley rat plasma at 10 mg/kg, po after 24 hrs; assay type: ADME, organism-based; parameters: dose 10 mg/kg, time < 24 hr, route oral; details: in vivo
# [12] = biological target: Receptor tyrosine-protein kinase erbB-2 (Homo sapiens, UniProt P04626); experiment: Inhibition of recombinant human […] ERBB2 cytoplasmic domain (676 to 1255 residues) expressed in baculovirus by Z'-LYTE assay
# [13] = biological target: Dual specificity mitogen-activated protein kinase kinase 1 (Homo sapiens, UniProt Q02750); experiment: Inhibition of full-length recombinant human His-tagged MEK1 expressed in baculovirus by Z'-LYTE assay
# [14] = biological target: Epidermal growth factor receptor (Homo sapiens, UniProt P00533, L858R); experiment: Inhibition of EGFR L858R mutant expressed in human H3255 cells assessed as reduction in ERK phosphorylation at Thr202/Tyr204 measured after 4 hrs by Western blot analysis; assay type: cell-based
# [15] = biological target: Insulin receptor (Homo sapiens) (UniProt P06213); experiment: Inhibition of Tel-fused INSR (unknown origin) expressed in mouse BAF3 cells assessed as growth inhibition after 72 hrs by CellTiter-Glo assay; assay type: cell-based
# [16] = biological target: T1, Epidermal growth factor receptor; experiment: Inhibition of wild-type EGFR in human A549 cells assessed as reduction in P70S6K phosphorylation at Thr389 site at 0.01 to 3 uM by Western blot analysis; assay type: cell-based; details: a549, 3 µM
# [17] = Tmax in Sprague-Dawley rat plasma at 1 mg/kg, iv after 8 hrs; assay type: ADME, organism-based
# [18] = Apparent plasma clearance in Sprague-Dawley rat at 1 mg/kg, iv after 8 hrs; assay type: ADME, organism-based
# [19] = biological target: Epidermal growth factor receptor (Homo sapiens, UniProt P00533, EX19DEL); experiment: Inhibition of EGFR exon 19 deletion mutant in human HCC827 cells assessed as reduction in ERK phosphorylation at Thr202/Tyr204 measured after 4 hrs by Western blot analysis; assay type: cell-based
# [20] = biological target: Insulin-like growth factor 1 receptor (Homo sapiens) (UniProt P08069); experiment: Inhibition of Tel-fused IGF1R (unknown origin) expressed in mouse BAF3 cells assessed as growth inhibition after 72 hrs by CellTiter-Glo assay; assay type: cell-based
# [21] = biological target: Epidermal growth factor receptor (Homo sapiens, UniProt P00533, L858R/T790M); experiment: Inhibition of EGFR L858R/T790M mutant in human NCI-H1975 cells assessed as reduction in ERK phosphorylation at Thr202/Tyr204 measured after 4 hrs by Western blot analysis; assay type: cell-based
# [22] = Half life in Sprague-Dawley rat plasma at 1 mg/kg, iv after 8 hrs; assay type: ADME, organism-based
# [23] = MRT (0 to infinity) in Sprague-Dawley rat plasma at 1 mg/kg, iv after 8 hrs; assay type: ADME, organism-based
# [24] = biological target: Tyrosine-protein kinase Blk (Homo sapiens, UniProt P51451); experiment: Binding affinity to wild-type human BLK expressed in bacterial system assessed as control score at 1 uM by KINOMEScan assay
# [25] = biological target: T1, Epidermal growth factor receptor; experiment: Inhibition of wild-type EGFR in human NCI-H2122 cells assessed as reduction in STAT3 phosphorylation at Y705 site at 0.01 to 3 uM by Western blot analysis; assay type: cell-based
# [26] = Half life in Sprague-Dawley rat plasma at 10 mg/kg, po after 24 hrs; assay type: ADME, organism-based
# [27] = biological target: Dual specificity mitogen-activated protein kinase kinase 5 (Homo sapiens) (UniProt Q13163); experiment: Binding affinity to wild-type human MEK5 expressed in mammalian system assessed as control score at 1 uM by KINOMEScan assay
# [28] = biological target: T1, Epidermal growth factor receptor; experiment: Inhibition of wild-type EGFR in human NCI-H2122 cells assessed as reduction in P70S6K phosphorylation at Thr389 site at 0.01 to 3 uM by Western blot analysis; assay type: cell-based
# Rattus norvegicus [29] = experiment: AUC (0 to t) in Sprague-Dawley rat plasma at 1 mg/kg, iv after 8 hrs; assay type: ADME, organism-based; parameters: time < 8 hr, dose 1 mg/kg, route intravenous; details: in vivo
# [30] = Tmax in Sprague-Dawley rat plasma at 10 mg/kg, po after 24 hrs; assay type: ADME, organism-based
# [31] = biological target: T1, Epidermal growth factor receptor; experiment: Inhibition of wild-type EGFR in human A549 cells assessed as reduction in Akt phosphorylation at 473 site at 0.01 to 3 uM by Western blot analysis; assay type: cell-based; details: a549, 3 µM
# [32] = biological target: Serine/threonine-protein kinase 10 (Homo sapiens) (UniProt O94804); experiment: Binding affinity to wild-type human LOK expressed in bacterial system assessed as control score at 1 uM by KINOMEScan assay
# [33] = biological target: T1, Epidermal growth factor receptor; experiment: Inhibition of wild type EGFR autophosphorylation at Y1068 in human A549 cells at 0.01 to 3 uM after 4 hrs by Western blot analysis; assay type: cell-based; details: a549, 4 h
# [34] = biological target: T1, Epidermal growth factor receptor; experiment: Inhibition of wild-type EGFR in human NCI-H2122 cells assessed as reduction in 4EBP1 phosphorylation at Thr37/46 site at 0.01 to 3 uM by Western blot analysis; assay type: cell-based
# [35] = biological target: T1, Epidermal growth factor receptor; experiment: Inhibition of wild-type EGFR in human NCI-H2122 cells assessed as reduction in ERK phosphorylation at Thr202/Tyr204 site at 0.01 to 3 uM by Western blot analysis; assay type: cell-based
# [36] = biological target: T1, Epidermal growth factor receptor; experiment: Inhibition of wild-type EGFR in human A549 cells assessed as growth inhibition after 72 hrs by CellTiter-Glo assay; assay type: cell-based; details: a549, 72 h
# T1 sequence (P00533 whole entry): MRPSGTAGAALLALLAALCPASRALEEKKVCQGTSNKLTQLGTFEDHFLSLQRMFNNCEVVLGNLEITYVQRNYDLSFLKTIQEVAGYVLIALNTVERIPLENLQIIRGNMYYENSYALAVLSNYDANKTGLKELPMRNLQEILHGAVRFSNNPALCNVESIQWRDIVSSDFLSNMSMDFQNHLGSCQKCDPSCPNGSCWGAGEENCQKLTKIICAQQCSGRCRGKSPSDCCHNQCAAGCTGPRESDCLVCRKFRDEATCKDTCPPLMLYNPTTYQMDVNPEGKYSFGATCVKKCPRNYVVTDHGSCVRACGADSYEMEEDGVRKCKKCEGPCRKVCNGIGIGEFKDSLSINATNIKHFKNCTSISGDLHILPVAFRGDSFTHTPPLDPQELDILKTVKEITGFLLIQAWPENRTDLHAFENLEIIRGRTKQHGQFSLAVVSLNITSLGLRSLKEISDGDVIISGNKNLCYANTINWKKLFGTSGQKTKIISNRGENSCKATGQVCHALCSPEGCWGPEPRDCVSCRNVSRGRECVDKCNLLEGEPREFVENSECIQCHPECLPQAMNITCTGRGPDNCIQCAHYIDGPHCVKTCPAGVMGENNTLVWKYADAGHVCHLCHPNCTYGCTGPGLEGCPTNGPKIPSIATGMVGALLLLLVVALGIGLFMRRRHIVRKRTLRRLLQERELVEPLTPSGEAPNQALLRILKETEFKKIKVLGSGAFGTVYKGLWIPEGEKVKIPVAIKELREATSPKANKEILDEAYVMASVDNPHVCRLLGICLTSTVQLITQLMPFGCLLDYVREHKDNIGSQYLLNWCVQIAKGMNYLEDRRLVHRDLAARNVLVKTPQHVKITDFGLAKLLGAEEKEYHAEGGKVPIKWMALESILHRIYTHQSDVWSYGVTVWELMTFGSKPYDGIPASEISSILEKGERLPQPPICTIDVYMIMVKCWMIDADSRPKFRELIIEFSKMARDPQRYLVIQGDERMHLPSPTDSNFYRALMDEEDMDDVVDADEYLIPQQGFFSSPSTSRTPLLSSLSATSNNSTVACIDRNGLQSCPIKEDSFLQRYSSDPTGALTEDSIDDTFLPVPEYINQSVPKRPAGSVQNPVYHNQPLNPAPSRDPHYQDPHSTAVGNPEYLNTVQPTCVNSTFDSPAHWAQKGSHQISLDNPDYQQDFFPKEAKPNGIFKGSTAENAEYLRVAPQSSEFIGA
# Chain of Epidermal growth factor receptor (Homo sapiens, UniProt P00533, EX19DEL) (P00533 whole entry, looked up, stated change not applied, the tested form may be a part): as the sequence (P00533 whole entry) above
# Chain of Receptor tyrosine-protein kinase erbB-2 (P04626 whole entry, the tested form may be a part): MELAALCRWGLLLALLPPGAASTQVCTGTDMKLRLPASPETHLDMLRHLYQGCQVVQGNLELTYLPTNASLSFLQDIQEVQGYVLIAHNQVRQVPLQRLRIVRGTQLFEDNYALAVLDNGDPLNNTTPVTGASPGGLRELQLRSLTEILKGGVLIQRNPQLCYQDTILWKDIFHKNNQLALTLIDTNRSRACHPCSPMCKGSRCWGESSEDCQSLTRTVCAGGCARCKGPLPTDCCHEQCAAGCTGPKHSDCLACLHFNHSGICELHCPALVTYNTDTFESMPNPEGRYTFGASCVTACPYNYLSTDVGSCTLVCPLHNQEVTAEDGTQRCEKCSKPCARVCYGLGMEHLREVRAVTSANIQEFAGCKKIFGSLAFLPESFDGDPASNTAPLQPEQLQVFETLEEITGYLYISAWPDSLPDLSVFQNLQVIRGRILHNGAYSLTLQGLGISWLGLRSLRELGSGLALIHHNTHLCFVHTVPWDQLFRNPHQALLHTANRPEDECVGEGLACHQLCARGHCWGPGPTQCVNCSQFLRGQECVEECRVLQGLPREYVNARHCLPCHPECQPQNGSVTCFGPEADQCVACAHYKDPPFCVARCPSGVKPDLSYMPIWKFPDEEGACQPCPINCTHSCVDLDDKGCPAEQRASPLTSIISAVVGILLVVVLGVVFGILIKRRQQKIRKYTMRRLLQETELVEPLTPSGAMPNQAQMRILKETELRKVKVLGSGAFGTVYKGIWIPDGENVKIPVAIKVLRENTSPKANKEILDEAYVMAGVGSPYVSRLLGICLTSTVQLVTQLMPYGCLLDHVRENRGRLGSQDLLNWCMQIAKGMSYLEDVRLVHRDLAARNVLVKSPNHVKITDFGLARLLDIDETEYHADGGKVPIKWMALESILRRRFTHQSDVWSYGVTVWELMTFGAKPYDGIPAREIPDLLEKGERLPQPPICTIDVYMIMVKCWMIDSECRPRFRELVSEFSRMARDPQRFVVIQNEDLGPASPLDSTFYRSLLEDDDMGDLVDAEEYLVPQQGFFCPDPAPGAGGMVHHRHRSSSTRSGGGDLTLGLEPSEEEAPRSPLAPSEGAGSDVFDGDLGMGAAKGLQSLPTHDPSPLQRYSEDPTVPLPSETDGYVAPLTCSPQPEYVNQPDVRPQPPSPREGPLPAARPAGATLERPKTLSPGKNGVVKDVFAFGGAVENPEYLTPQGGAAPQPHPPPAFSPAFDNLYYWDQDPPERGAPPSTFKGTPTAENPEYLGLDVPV
# Chain of Insulin receptor (Homo sapiens) (P06213 28-758 limits assumed): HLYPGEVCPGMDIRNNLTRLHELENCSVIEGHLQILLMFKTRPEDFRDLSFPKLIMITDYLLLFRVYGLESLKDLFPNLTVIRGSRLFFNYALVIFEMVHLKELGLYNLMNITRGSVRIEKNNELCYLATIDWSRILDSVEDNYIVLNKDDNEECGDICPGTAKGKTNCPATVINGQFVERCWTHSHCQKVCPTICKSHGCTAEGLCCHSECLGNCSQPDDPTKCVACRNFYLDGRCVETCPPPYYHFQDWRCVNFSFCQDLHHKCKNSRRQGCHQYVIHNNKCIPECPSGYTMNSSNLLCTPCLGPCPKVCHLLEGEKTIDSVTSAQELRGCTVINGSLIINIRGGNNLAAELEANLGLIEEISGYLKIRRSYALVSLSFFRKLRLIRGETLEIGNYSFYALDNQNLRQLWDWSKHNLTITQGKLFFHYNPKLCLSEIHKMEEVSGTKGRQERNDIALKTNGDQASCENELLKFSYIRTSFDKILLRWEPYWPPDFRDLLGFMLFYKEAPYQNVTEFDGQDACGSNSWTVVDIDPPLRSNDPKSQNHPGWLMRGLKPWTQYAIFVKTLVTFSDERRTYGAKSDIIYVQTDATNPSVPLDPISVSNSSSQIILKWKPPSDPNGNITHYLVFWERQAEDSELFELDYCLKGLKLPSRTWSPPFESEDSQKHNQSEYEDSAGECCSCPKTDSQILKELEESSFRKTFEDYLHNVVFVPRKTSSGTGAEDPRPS
# Chain of Insulin receptor (Homo sapiens) (P06213 763-1382 limits assumed): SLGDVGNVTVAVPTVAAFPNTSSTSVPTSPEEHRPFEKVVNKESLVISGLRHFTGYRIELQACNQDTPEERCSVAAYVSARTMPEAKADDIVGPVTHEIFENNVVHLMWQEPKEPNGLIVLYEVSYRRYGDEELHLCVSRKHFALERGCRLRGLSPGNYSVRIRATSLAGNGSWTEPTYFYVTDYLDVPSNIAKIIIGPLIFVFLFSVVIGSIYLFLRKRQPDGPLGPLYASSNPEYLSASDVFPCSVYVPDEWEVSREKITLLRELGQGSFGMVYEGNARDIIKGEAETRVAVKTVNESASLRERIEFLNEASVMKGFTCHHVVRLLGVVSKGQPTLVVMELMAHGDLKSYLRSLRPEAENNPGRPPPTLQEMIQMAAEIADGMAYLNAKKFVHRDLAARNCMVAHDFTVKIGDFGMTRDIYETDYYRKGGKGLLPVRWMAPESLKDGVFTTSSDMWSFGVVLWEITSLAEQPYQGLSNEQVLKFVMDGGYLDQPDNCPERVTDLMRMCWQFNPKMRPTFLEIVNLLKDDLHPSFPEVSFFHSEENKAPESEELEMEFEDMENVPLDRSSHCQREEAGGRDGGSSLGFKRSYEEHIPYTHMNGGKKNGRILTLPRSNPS
smiles,measurement,setting,value
C=CC(=O)N1CCC[C@@H](n2nc(-c3ccc(OCc4ccccn4)c(Cl)c3)c3c(N)ncnc32)C1,inhibition (INH),[1],Active
same,CL/F,[2],24.4 L/h/kg
same,GI50,[3],2 µM
same,inhibition (INH),[4],Not Active
same,GI50,[5],> 10 µM
same,inhibition (INH),[6],Not Active
same,Activity,[7],0.05%
same,inhibition (INH),[8],Not Active
same,inhibition (INH),[9],Not Active
same,GI50,[10],> 10 µM
same,AUCt,Rattus norvegicus [11],130 to 415 ng/mL/h
same,pIC50,[12],8.09
same,pIC50,[13],6.79
same,pEC50,[14],> 8.00
same,GI50,[15],3.5 µM
same,inhibition (INH),[16],Not Active
same,Tmax,[17],1.02 min
same,clearance,[18],2.48 L/h/kg
same,pEC50,[19],> 8.00
same,GI50,[20],> 10 µM
same,pEC50,[21],> 8.00
same,half-life,[22],18 min
same,MRT inf,[23],12.6 min
same,Activity,[24],0.7%
same,inhibition (INH),[25],Not Active
same,half-life,[26],117 min
same,Activity,[27],0.1%
same,inhibition (INH),[28],Not Active
same,AUCt,Rattus norvegicus [29],404 to 2340 ng/mL/h
same,Tmax,[30],34.8 min
same,inhibition (INH),[31],Not Active
same,Activity,[32],0.95%
same,inhibition (INH),[33],Active
same,inhibition (INH),[34],Not Active
same,inhibition (INH),[35],Not Active
same,GI50,[36],> 10 µM
